# Assay results: patent US20250066358A1, “Inhibitors of Menin-MLL Interaction” (Bala Therapeutics, Inc., priority 2021, published 2025)
# Legend:
# MOLM-13 = MOLM-13 Cellular Growth Inhibition Assay (CellTiter-Glo); format: cell-based; conditions: Homo sapiens, 168 h, MOLM-13 cells, 7 days of incubation
# Method: (§1) HEK293 (Institute of Cytology Russian Academy of Science), MV4-11 (ATCC, CRL-9591), MOLM-13 (AcceGen, ABC-TC517S) were seeded at a density of 500 cells per well (HEK293) and 2000 cells per well (MV4-11, MOLM-13) in a 384-well clear bottom plate (Greiner Cat #781090) in 45 μl total volume of DMEM (PanEco, Cat #C420, Russia) or RPMI (PanEco, Cat #C330, Russia) with 10% FBS(HyClone Cat #SV30160.03). HEK293 were allowed to adhere overnight at 37° C., 5% CO2. 500× compounds solutions in DMSO (Sigma Cat #D2650) were prepared into Cmpnds plate (Diamond Well Plate, Axigen, Cat #P-384-120 SQ-C—S) and DMSO only control was included. 1 μl of 500× compounds (Cmpnds plate) was added to 49 μl of culture medium into Dilution plate (Diamond Well Plate, Axigen, Cat #P-384-120 SQ-C—S), mixed and then 5 μl of 10× compounds solutions were transferred to cells followed by centrifugation at 100 g for 1 min. Final DMSO concentration was 0.2%. After 3 days of incubation, 10 μl of 1× compounds were added to cells. After 7 days of incubation, 12 μl of CellTiter-Glo (Promega, CAT #G7572) were added to the cells, plate was centrifuged at 100 g for 1 min and luminescence signal was measured using Microplate Reader (CLARIOStar).
# [1] = molecular target: T1, recombinant MEN1 protein and fluorescein-labeled MLL4-43 peptide (Homo sapiens, UniProt O00255); assay: Primary fluorescence polarization assay of MEN1 / MLL4-43 interaction inhibition; format: binding; conditions: MEN1 10 nM, MLL4-43 0.5 nM, 1 hour at room temperature
# T1 construct: purchased Creativebiomart MEN1-35H
# T1 sequence (O00255 1-610): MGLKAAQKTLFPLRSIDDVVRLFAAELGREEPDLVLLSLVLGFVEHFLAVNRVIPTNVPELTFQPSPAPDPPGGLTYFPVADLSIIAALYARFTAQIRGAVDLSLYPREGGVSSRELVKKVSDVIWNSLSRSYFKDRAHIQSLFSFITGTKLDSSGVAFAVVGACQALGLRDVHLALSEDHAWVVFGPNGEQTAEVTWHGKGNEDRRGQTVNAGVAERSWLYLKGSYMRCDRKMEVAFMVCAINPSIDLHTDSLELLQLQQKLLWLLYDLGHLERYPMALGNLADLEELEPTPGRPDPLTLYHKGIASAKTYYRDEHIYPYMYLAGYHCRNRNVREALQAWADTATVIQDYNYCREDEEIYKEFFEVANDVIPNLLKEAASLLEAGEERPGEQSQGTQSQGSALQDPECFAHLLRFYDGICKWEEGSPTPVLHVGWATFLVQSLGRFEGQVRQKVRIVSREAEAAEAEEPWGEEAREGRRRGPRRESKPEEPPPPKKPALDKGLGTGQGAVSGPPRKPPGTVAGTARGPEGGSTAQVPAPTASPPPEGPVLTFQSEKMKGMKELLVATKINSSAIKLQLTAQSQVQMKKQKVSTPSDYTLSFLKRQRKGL
# Method: Compound activity was determined using recombinant MEN1 protein (Creativebiomart, Cat #MEN1-35H) and a custom fluorescein-labeled MLL4-43 peptide (Eton Bioscience Inc.). Interaction between MEN1 and MLL4-43 in the presence of compounds was determined by fluorescence polarization assay using a Microplate Reader ClarioStar Plus. The reaction was carried out in assay buffer (50 mM TRIS-HCl PH 7.4-7.6, 50 mM NaCl, 1 mM DTT, 0.1 mg/ml BSA). The compounds were dispensed on a 384 well Diamond Well Plate (Axigen, Cat #P-384-120 SQ-C—S) using the Biomek FX liquid handling system at 100× solutions of compounds in DMSO. 2× MEN1 mix (final concentration of MEN1 10 nM) was prepared in Assay buffer and 10 μl of mixture per well was added into 384w white Reaction plate with NBS(Corning, Cat #4513). 10 μl of Assay buffer w/o MENI was used for negative control. Plates were centrifuged for 1 min at 100 g. Next step the Compounds were added to Reaction plate using Biomek station via following steps: 3 μl of 100× compounds (in DMSO) were mixed thoroughly with 27 μl Assay Buffer, then 2 μl of this mixture was added to Reaction plate with 10 μl of MENI mix. Plates were centrifuged for 1 min at 100 g and incubated for 20 min at room temperature. Next 8 μL of MLL4-43 peptide per well was added to final concentration of MLL 0.5 nM. Plates were incubated for 1 hour at room temperature. Then fluorescence polarization was measured using Microplate Reader.
# MV4-11 = MV4-11 Cellular Growth Inhibition Assay (CellTiter-Glo); format: cell-based; conditions: Homo sapiens, 168 h, MV4-11 cells, 7 days of incubation
# Method: as §1
# [2] = HEK293 Cellular Growth Inhibition Assay (CellTiter-Glo); format: cell-based; conditions: human, HEK293 cells, 7 days of incubation
# Method: as §1
EC50 [1] [µM],Structure (SMILES),CC50 (MOLM-13) [µM],CC50 (MV4-11) [µM],CC50 at 7 days [2] [µM]
0.075 to 0.5,"CCS(=O)(=O)N[C@H]1CC[C@H](CN2CCC3(CC2)CN(c2ncnc4ccc(CC(C)c5ccccc5)cc24)C3)CC1 (mixture of isomers) [Compound 59, N-((1R,4R)-4-((2-(6-((RS)-2-phenylpropyl)quinazolin-4-yl)-2,7-diazaspiro[3.5]nonan-7-yl)methyl)cyclohexyl)ethanesulfonamide]",≤ 1,≤ 1,≤ 5
> 5,"CCS(=O)(=O)Nc1ccc(CN2CCC3(CC2)CN(c2ncnc4ccc(CC(F)(F)F)cc24)C3)cc1OCC(C)N1CCN(S(C)(=O)=O)CC1 (racemic) [Compound 70, rac-(R)-N-(2-(2-(4-(methylsulfonyl)piperazin-1-yl)propoxy)-4-((2-(6-(2,2,2-trifluoroethyl)quinazolin-4-yl)-2,7-diazaspiro[3.5]nonan-7-yl)methyl)phenyl)ethanesulfonamide]",5 to 10,2.5 to 5,15 to 30
> 5,"CCS(=O)(=O)N[C@H]1CC[C@H](CN2CCC(Nc3ncnc4ccc(CC(F)(F)F)cc34)C2)CC1 (mixture of isomers) [Compound 71, N-((1R,4R)-4-(((RS)-3-((6-(2,2,2-trifluoroethyl)quinazolin-4-yl)amino)pyrrolidin-1-yl)methyl)cyclohexyl)ethanesulfonamide]",> 20,> 10,> 50
1 to 5,"CCS(=O)(=O)NC1CCc2cc(CN3CCC4(CC3)CN(c3ncnc5ccc(CC(F)(F)F)cc35)C4)cc(F)c2C1 (racemic) [Compound 77, rac-(R)-N-(8-fluoro-6-((2-(6-(2,2,2-trifluoroethyl)quinazolin-4-yl)-2,7-diazaspiro[3.5]nonan-7-yl)methyl)-1,2,3,4-tetrahydronaphthalen-2-yl)ethanesulfonamide]",–,–,–
1 to 5,"CCS(=O)(=O)Nc1ccc(CN2CCC3(CC2)CCN(c2ncnc4ccc(CC(F)(F)F)cc24)CC3)cc1 [Compound 1, N-[4-[[3-[6-(2,2,2-trifluoroethyl)quinazolin-4-y1]-3,9-diazaspiro[5.5]undecan-9-yl]methyl]phenyl]ethanesulfonamide]",5 to 10,2.5 to 5,5 to 15
> 5,CCS(=O)(=O)Nc1ccc(CN2CCC3(CC2)CCN(c2ncnc4cc(CC(F)(F)F)ccc24)CC3)cc1 [Compound 2],–,> 10,15 to 30
0.5 to 1,"CCS(=O)(=O)N[C@H]1CC[C@H](CN2CCC3(CC2)CCN(c2ncnc4ccc(CC(F)(F)F)cc24)CC3)CC1 [Compound 3, N-((1R,4R)-4-((9-(6-(2,2,2-trifluoroethyl)quinazolin-4-yl)-3,9-diazaspiro[5.5]undecan-3-yl)methyl)cyclohexyl)ethanesulfonamide]",10 to 20,5 to 10,5 to 15
1 to 5,"CCS(=O)(=O)N[C@H]1CC[C@H](CN2CCC3(CC2)CCN(c2ncnc4cc(CC(F)(F)F)ccc24)CC3)CC1 [Compound 4, N-((1R,4R)-4-((9-(7-(2,2,2-trifluoroethyl)quinazolin-4-yl)-3,9-diazaspiro[5.5]undecan-3-yl)methyl)cyclohexyl)ethanesulfonamide]",–,–,–
> 5,"CCS(=O)(=O)Nc1ccc(CN2CCC3(CC2)CN(c2ncnc4ccccc24)C3)cc1 [Compound 21, N-(4-((2-(quinazolin-4-yl)-2,7-diazaspiro[3.5]nonan-7-yl)methyl)phenyl)ethanesulfonamide]",–,–,–
> 5,"CCS(=O)(=O)Nc1cccc(CN2CCC3(CC2)CN(c2ncnc4ccccc24)C3)c1 [Compound 23, N-(3-((2-(quinazolin-4-yl)-2,7-diazaspiro[3.5]nonan-7-yl)methyl)phenyl)ethanesulfonamide]",–,–,–
> 5,"CCS(=O)(=O)Nc1ccc(CN2CCC3(CC2)CN(c2ncnc4ncccc24)C3)cc1 [Compound 24, N-[4-[(2-pyrido[2,3-d]pyrimidin-4-yl-2,7-diazaspiro[3.5]nonan-7-yl)methyl]phenyl]ethanesulfonamide]",–,–,–
> 5,CCS(=O)(=O)Nc1ccc(CN2CCC3(CC2)CN(c2nc(NC)nc4ncccc24)C3)cc1 [Compound 31],–,–,–
> 5,"CCS(=O)(=O)Nc1ccc(CN2CCC(Nc3ncnc4cc(CC(F)(F)F)ccc34)CC2)cc1 [Compound 33, N-(4-((4-((7-(2,2,2-trifluoroethyl)quinazolin-4-yl)amino)piperidin-1-yl)methyl)phenyl)ethanesulfonamide]",–,–,–
1 to 5,"CCS(=O)(=O)N[C@H]1CC[C@H](CN2CCC3(CC2)CN(c2ncnc4ccc(CCc5nc(C)no5)cc24)C3)CC1 [Compound 63, N-((1R,4R)-4-((2-(6-(2-(3-methyl-1,2,4-oxadiazol-5-yl)ethyl)quinazolin-4-yl)-2,7-diazaspiro[3.5]nonan-7-yl)methyl)cyclohexyl)ethanesulfonamide]",–,–,–
> 5,"CCS(=O)(=O)Nc1ccc(CN2CCC3(CC2)CN(c2ncnc4ccc(CC(F)(F)F)cc24)C3)cc1C(=O)NCCN1CCOCC1 [Compound 92, 2-(ethylsulfonamido)-N-(2-morpholinoethyl)-5-((2-(6-(2,2,2-trifluoroethyl)quinazolin-4-yl)-2,7-diazaspiro[3.5]nonan-7-yl)methyl)benzamide]",–,–,–
1 to 5,"CCN(C[C@H]1CC[C@H](NS(=O)(=O)CC)CC1)c1ccc(CN2CCC3(CC2)CN(c2ncnc4ccc(CC(F)(F)F)cc24)C3)cc1 [Compound 100, N-((1R,4R)-4-((ethyl(4-((2-(6-(2,2,2-trifluoroethyl)quinazolin-4-yl)-2,7-diazaspiro[3.5]nonan-7-yl)methyl)phenyl)amino)methyl)cyclohexyl)ethanesulfonamide]",–,–,–
1 to 5,"N#Cc1cc(CN2CCC3(CC2)CN(c2ncnc4ccc(CC(F)(F)F)cc24)C3)ccc1F [Compound 102, 2-fluoro-5-((2-(6-(2,2,2-trifluoroethyl)quinazolin-4-yl)-2,7-diazaspiro[3.5]nonan-7-yl)methyl)benzonitrile]",–,–,–
0.075 to 0.5,"CCS(=O)(=O)N1CCc2cc(CN3CCC4(CC3)CN(c3ncnc5ccc(CC(F)(F)F)cc35)C4)ccc2C1 [Compound 110, 4-(7-((2-(ethylsulfonyl)-1,2,3,4-tetrahydroisoquinolin-6-yl)methyl)-2,7-diazaspiro[3.5]nonan-2-yl)-6-(2,2,2-trifluoroethyl)quinazoline]",–,–,–
1 to 5,"CCS(=O)(=O)N1CCc2ccc(CN3CCC4(CC3)CN(c3ncnc5ccc(CC(F)(F)F)cc35)C4)cc2C1 [Compound 111, 4-(7-((2-(ethylsulfonyl)-1,2,3,4-tetrahydroisoquinolin-7-yl)methyl)-2,7-diazaspiro[3.5]nonan-2-y1)-6-(2,2,2-trifluoroethyl)quinazoline]",–,–,–
> 5,"c1ccc(CCc2ccc3ncnc(N4CC5(CCNCC5)C4)c3c2)cc1 [Compound P148, 4-(2,7-Diazaspiro[3.5]non-2-yl)-6-(2-phenylethyl)quinazoline]",–,–,–
